Key:
[1] = tested on: SmT-F transplanted tumors; test: Photodynamic therapy of transplanted mouse tumors, necrotic/affected area by Evans Blue dye (Example 8); type: in vivo, DBA/2 Ha Ros-d+Ha mice; conditions: 100 mg/kg iv, 24 hrs between drug dose and light, 200 mW/cm^2, 300 J/cm^2, wavelength nm: 2-acetyl 680, 2-formyl 690, chlorin e6 665, deutero 655, meso 652, necrotic/affected tumor area
Protocol: The treatment and evaluation procedure is as follows: • DBA/2 Ha Ros-d+Ha mice with SmT-F transplanted tumors either in the exterior part of the hind leg or the side of the mouse were injected intravenously via the external jugular or intraperitoneally with the photosensitizing drug. At the specified time after injection, the area over the tumor was shaved and the light treatment begun.
Light from a Cooper Aurora argon pumped tunable dye laser was administered via a micro lens system (developed by Dr. Daniel Doiron, D,R.D. Consulting, Santa Barbara, California) coupled through a quartz fiber to the laser. The optical properties of the lens are such that the light exits the lens in a circular pattern with homogenous intensity throughout the lighted area, The diameter of the lighted area is a function of the distance from the lens,
The light intensity was measured with a Yellow Springs Instrument Model 65 A Radiometer at the point of treatment. A 1.5 cm diameter circle of the animal's skin, centered as closely as possible over the tumor, was irradiated in all the experiments. The intensity, wavelength, and dosage of light is included in the data for individual groups of animals. Wavelengths are adjusted, using a Hartridge reversion spectroscope to within 1 nm of the stated value.
Twenty four hours after light treatment, each mouse received 5 mg of Evans Blue Dye intravenously (1). After an additional two hours, the mice were sacrificed and the tumors were sectioned vertically through the center of the light treated area. Unaffected tumor was stained blue as was unaffected normal tissue. Necrotic or affected areas were white or red in appearance. Measurements on both the whole tumors and affected areas of the tumors were made vertically and horizontally with calipers to the nearest one half millimeter.

Morris Hepatoma 7777 = test: Photodynamic therapy, depth of tumor necrosis by Evans Blue method (Example 6); type: in vivo, Buffalo rats; conditions: Tumor 7777; 20 Joules/cm^2; drug dose 20 mg/kg intravenously; 24 hrs between drug and light; 665 nm; 100 mW/cm^2; n=3
Protocol: The phtotdynamic therapy experiments have been carried out on Buffalo rats, using the transplantable tumor, Morris Hepatoma 7777. The tumors were transplanted subcutaneously on the outside of the thigh. During treatment, the tumors ranged in size between 1 and 2.5 cm in diameter.
The general treatment regime is as follows. The rats are injected with a solution of the chlorin prepared as follows: 20mg of the sodium salt of the chlorin was dissolved in 1 ml of 0.9% NaCl. The chlorin solution was then injected intravenously through the external jugular while the rat was anesthetized with ether. The volume of solution injected was calculated based upon the weight of the animal and the dosage, on a weight to weight basis, for the particular experiment. […]
The lens disperses the laser beam, providing a circular distribution of light with homogenous light intensity throughout the area of the incident light beam. […] The light intensity was determined using a Yellow Springs Instrument, Model 65A, radiometer. […]
Subsequent to illumination, the animal was returned to its cage and, 24 hours later, it was treated intravenously in the external jugular vein with 14 mg of Evans Blue dye, dissolved in 250 ul of 0.9% NaCl. […] The extent of tumor necrosis was assessed by the lack of dye uptake, and the depth of the necrotic cross section of the tumor was recorded in millimeters. […]

[2] = tested on: Morris Hepatoma 7777 tumors; test: Photodynamic therapy, chlorin e6 compared with Photofrin II, tumor necrosis by Evans Blue dye (Example 7); type: in vivo, Buffalo rats; conditions: 19 tumors treated; 20mg/kg intravenously; light 24 hours later; 665 nanometer; 100 mw/cm^2; 20 joules/cm^2
Protocol: Male Buffalo rats (approximately 200g each), with transplanted subcutaneous Morris Hepatoma 7777 tumors on the exterior portion of the hind legs were injected intravenously via the exterior jugular with chlorin-e6 or Photofrin II, ^(2) at a dosage of 20mg/kg. Twenty four hours later, the areas over the tumors were shaved and the light treatment was begun.
Light from a Cooper Aurora argon pumped tunable dye laser was administered via a micro lens system (developed by Dr. Daniel Doiron, D.R.D. Consulting, Santa Barbara, California) coupled through a quartz fiber to the laser. The optical properties of the lens are such that the light exits the lens in a circular pattern with a homogenous intensity throughout the lighted area. The diameter of the lighted area is a function of its distance from the lens.
The light intensity was measured with a Yellow Springs Instrument Model 65A Radiometer at the point of treatment. […] Photofrin II rats were treated with 630 nanometer light in accordance with the preponderance of photodynamic therapy experiments described in the literature, using this drug, and its forerunner HPD or Photofrin I. The wavelengths of light were determined with the aid of a Hartridge reversion spectroscope to within one nanometer. […]
Nineteen tumors were evaluated for Chlorin e6 and light effect while twenty two tumors were assessed for Photofrin II and light effect.

| Compound | X̄ ± s.d. (cm) [1] [cm] | range cm [1] | Range mm: range of depth of necrosis within the group (Morris Hepatoma 7777) | x̄ s.d.(n): mean depth of necrosis of the tumor tissue (Morris Hepatoma 7777) | number of tumors developing necrosis following treatment [2] |
| --- | --- | --- | --- | --- | --- |
| CCC1=C(C)c2cc3[nH]c(cc4nc(c(CC(=O)O)c5[nH]c(cc1n2)c(C)c5C(=O)O)C(CCC(=O)O)C4C)c(C)c3CC (stereo not shown) [mesochlorin e6, Mesochlorin e6] | 0.06±0.08 | 0.00-0.15 cm | – | – | – |
| C=Cc1c(C)c2cc3nc(c(CC(=O)O)c4[nH]c(cc5nc(cc1[nH]2)C(C)=C5CC)c(C)c4C(=O)O)[C@@H](CCC(=O)O)[C@@H]3C [Chlorin e6] | 0.26±0.05 | 0.20-0.35 cm | 3.5-5 mm | 4.5±0.9 (3) mm | 17 |
| CCC1=C(C)c2cc3[nH]c(cc4nc(c(CC(=O)O)c5[nH]c(cc1n2)c(C)c5C(=O)O)C(CCC(=O)O)C4C)c(C)c3C(C)=O (stereo not shown) [2-acetyl chlorin e6] | 0.04±0.08 | 0.00-0.15 cm | – | – | – |
| CCC1=C(C)c2cc3cc(C)c(cc4nc(c(CC(=O)O)c5[nH]c(cc1n2)c(C)c5C(=O)O)C(CCC(=O)O)C4C)[nH]3 (stereo not shown) [deuterochlorin e6, Deuterochlorin e6] | 0.59±0.07 | 0.50-0.70 cm | – | – | – |
| CCC1=C(C)c2cc3[nH]c(cc4nc(c(CC(=O)O)c5[nH]c(cc1n2)c(C)c5C(=O)O)C(CCC(=O)O)C4C)c(C)c3C=O (stereo not shown) [2-formyl chlorin e6, 2-Desvinyl-2-FormylChlorin e6] | 0.33±0.12 | 0.20-0.45 cm | – | – | – |
